Data reported in ChEMBL document CHEMBL3137667, “[Drug-induced liver injury; fourteenth updated edition of the bibliographic database of liver injuries and related drugs]” (Gastroenterol Clin Biol, 2004).

Assays:
[1] = human
[2] = human, serum, 4383 h
[3] = human; remark: listed apart in the source
[4] = human, serum
[5] = human; remark: listed apart in the source
[6] = human; remark: listed apart in the source
[7] = human; remark: listed apart in the source
[8] = human; remark: listed apart in the source
[9] = Highest frequency of acute liver toxicity observed during clinical trials, expressed as a percentage. [column '% AIGUE' in source]; conditions: human
[10] = human; remark: listed apart in the source
[11] = Highest frequency of moderate liver toxicity observed during clinical trials, expressed as a percentage. [column '% BIOL' in source]; conditions: human
[12] = human; remark: listed apart in the source
[13] = human; remark: listed apart in the source
[14] = human, serum; remark: listed apart in the source
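Throughout, for Hepatotoxicity (association with vascular disease): count of indexed literature references reporting vascular liver injury in humans, e.g. peliosis hepatitis, hepatic veno-occlusive disease or Budd-Chiari syndrome.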
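Throughout, for Hepatotoxicity (benign tumour): value is a count of indexed literature references citing a benign tumour confirmed by histopathology.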
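Throughout, for Hepatotoxicity (choleostasis): human cholestatic liver injury, shown by histopathology or by peak ALT or AST elevation over alkaline phosphatase ratio below 2, value counts indexed literature reports.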
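Throughout, for Hepatotoxicity (chronic liver disease): chronic liver injury confirmed by histopathology or persistently raised serum aminotransferase activity beyond 6 months, value given as the count of indexed literature references.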
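Throughout, for Hepatotoxicity (cirrhosis): value is a count of indexed literature references reporting cirrhosis confirmed by histopathology.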
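Throughout, for Hepatotoxicity (cytolytic): human cytolytic liver injury, shown by histopathology or by a ratio above 5 of peak ALT or AST elevation to alkaline phosphatase elevation, value counts indexed references.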
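Throughout, for Hepatotoxicity (granulomatous hepatitis): value is a count of indexed literature references reporting granulomatous liver disease confirmed by histopathology.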
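Throughout, for Hepatotoxicity (malignant tumour): malignant tumour confirmed by histopathology, value gives the count of indexed literature references reporting it.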
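Throughout, for Hepatotoxicity (severe hepatitis): human clinical data: severe hepatitis, meaning potentially life-threatening liver failure or clinically observed cases, the value counts how many indexed literature references report it.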
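Throughout, for Hepatotoxicity (steatosis): steatosis confirmed by histopathology, value is the count of indexed references.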

Structure (SMILES): Nc1nc(N)nc(Nc2ccc([As]3SCC(CO)S3)cc2)n1 (centres undefined) [MELARSOPROL]
- Hepatotoxicity (granulomatous hepatitis) [1]: 0
- Hepatotoxicity (chronic liver disease) [2]: 0
- Hepatotoxicity (malignant tumour) [3]: 0
- Hepatotoxicity (moderate) [4]: 3
- Hepatotoxicity (benign tumour) [5]: 0
- Hepatotoxicity (severe hepatitis) [6]: 0
- Hepatotoxicity (cirrhosis) [7]: 0
- Hepatotoxicity (cytolytic) [8]: 0
- Hepatotoxicity (acute) [9]: 0%
- Hepatotoxicity (steatosis) [10]: 0
- Hepatotoxicity (moderate) [11]: 1%
- Hepatotoxicity (choleostasis) [12]: 0
- Hepatotoxicity (association with vascular disease) [13]: 0
- Hepatotoxicity (acute) [14]: 0

Structure (SMILES): CC1CCN(CCCC(=O)c2ccc(F)cc2)CC1 [MELPERONE]
- Hepatotoxicity (granulomatous hepatitis) [1]: 0
- Hepatotoxicity (chronic liver disease) [2]: 0
- Hepatotoxicity (malignant tumour) [3]: 0
- Hepatotoxicity (moderate) [4]: 2
- Hepatotoxicity (benign tumour) [5]: 0
- Hepatotoxicity (severe hepatitis) [6]: 0
- Hepatotoxicity (cirrhosis) [7]: 0
- Hepatotoxicity (cytolytic) [8]: 0
- Hepatotoxicity (acute) [9]: 0%
- Hepatotoxicity (steatosis) [10]: 0
- Hepatotoxicity (moderate) [11]: 12%
- Hepatotoxicity (choleostasis) [12]: 0
- Hepatotoxicity (association with vascular disease) [13]: 0
- Hepatotoxicity (acute) [14]: 0

Structure (SMILES): CO[C@@H]1C[C@](C)(O)Cc2cc3c(c(O)c21)C(=O)c1c(O)cc2c(c1C3=O)O[C@@H]1O[C@@]2(C)[C@H](O)[C@@H](N(C)C)[C@@H]1O [MENOGARIL]
- Hepatotoxicity (granulomatous hepatitis) [1]: 0
- Hepatotoxicity (chronic liver disease) [2]: 0
- Hepatotoxicity (malignant tumour) [3]: 0
- Hepatotoxicity (moderate) [4]: 4
- Hepatotoxicity (benign tumour) [5]: 0
- Hepatotoxicity (severe hepatitis) [6]: 0
- Hepatotoxicity (cirrhosis) [7]: 0
- Hepatotoxicity (cytolytic) [8]: 0
- Hepatotoxicity (acute) [9]: 0%
- Hepatotoxicity (steatosis) [10]: 0
- Hepatotoxicity (moderate) [11]: 16.7%
- Hepatotoxicity (choleostasis) [12]: 0
- Hepatotoxicity (association with vascular disease) [13]: 0
- Hepatotoxicity (acute) [14]: 0

Structure (SMILES): O=C1NC(=S)NC(=O)C1C(=O)Nc1ccccc1 [MERBARONE]
- Hepatotoxicity (granulomatous hepatitis) [1]: 0
- Hepatotoxicity (chronic liver disease) [2]: 0
- Hepatotoxicity (malignant tumour) [3]: 0
- Hepatotoxicity (moderate) [4]: 3
- Hepatotoxicity (benign tumour) [5]: 0
- Hepatotoxicity (severe hepatitis) [6]: 0
- Hepatotoxicity (cirrhosis) [7]: 0
- Hepatotoxicity (cytolytic) [8]: 0
- Hepatotoxicity (acute) [9]: 3.8%
- Hepatotoxicity (steatosis) [10]: 0
- Hepatotoxicity (moderate) [11]: 28.6%
- Hepatotoxicity (choleostasis) [12]: 0
- Hepatotoxicity (association with vascular disease) [13]: 0
- Hepatotoxicity (acute) [14]: 1

Structure (SMILES): C[C@@H](O)[C@H]1C(=O)N2C(C(=O)O)=C(S[C@@H]3CN[C@H](C(=O)N(C)C)C3)[C@H](C)[C@H]12 [MEROPENEM]
- Hepatotoxicity (granulomatous hepatitis) [1]: 0
- Hepatotoxicity (chronic liver disease) [2]: 0
- Hepatotoxicity (malignant tumour) [3]: 0
- Hepatotoxicity (moderate) [4]: 92
- Hepatotoxicity (benign tumour) [5]: 0
- Hepatotoxicity (severe hepatitis) [6]: 0
- Hepatotoxicity (cirrhosis) [7]: 0
- Hepatotoxicity (cytolytic) [8]: 0
- Hepatotoxicity (acute) [9]: 5.3%
- Hepatotoxicity (steatosis) [10]: 0
- Hepatotoxicity (moderate) [11]: 48.1%
- Hepatotoxicity (choleostasis) [12]: 0
- Hepatotoxicity (association with vascular disease) [13]: 0
- Hepatotoxicity (acute) [14]: 1

Structure (SMILES): Cc1cc(C)cc(OCC2CNC(=O)O2)c1 (centres undefined) [METAXALONE]
- Hepatotoxicity (granulomatous hepatitis) [1]: 0
- Hepatotoxicity (chronic liver disease) [2]: 0
- Hepatotoxicity (malignant tumour) [3]: 0
- Hepatotoxicity (moderate) [4]: 0
- Hepatotoxicity (benign tumour) [5]: 0
- Hepatotoxicity (severe hepatitis) [6]: 0
- Hepatotoxicity (cirrhosis) [7]: 0
- Hepatotoxicity (cytolytic) [8]: 0
- Hepatotoxicity (acute) [9]: 0%
- Hepatotoxicity (steatosis) [10]: 0
- Hepatotoxicity (moderate) [11]: 0%
- Hepatotoxicity (choleostasis) [12]: 0
- Hepatotoxicity (association with vascular disease) [13]: 0
- Hepatotoxicity (acute) [14]: 2

Structure (SMILES): CSCC[C@H](N)C(=O)O [METHIONINE]
- Hepatotoxicity (granulomatous hepatitis) ([1]; Liver): 0
- Hepatotoxicity (chronic liver disease) [2]: 0
- Hepatotoxicity (malignant tumour) [3]: 0
- Hepatotoxicity (moderate) [4]: 1
- Hepatotoxicity (benign tumour) [5]: 0
- Hepatotoxicity (severe hepatitis) ([6]; Liver): 0
- Hepatotoxicity (cirrhosis) [7]: 0
- Hepatotoxicity (cytolytic) ([8]; Liver): 1
- Hepatotoxicity (acute) ([9]; Liver): 0%
- Hepatotoxicity (steatosis) [10]: 0
- Hepatotoxicity (moderate) ([11]; Liver): 0%
- Hepatotoxicity (choleostasis) ([12]; Liver): 0
- Hepatotoxicity (association with vascular disease) [13]: 0
- Hepatotoxicity (acute) [14]: 2

Structure (SMILES): CN1C(CCl)Nc2cc(Cl)c(S(N)(=O)=O)cc2S1(=O)=O (centres undefined) [METHYCLOTHIAZIDE]
- Hepatotoxicity (granulomatous hepatitis) [1]: 0
- Hepatotoxicity (chronic liver disease) [2]: 0
- Hepatotoxicity (malignant tumour) [3]: 0
- Hepatotoxicity (moderate) [4]: 1
- Hepatotoxicity (benign tumour) [5]: 0
- Hepatotoxicity (severe hepatitis) [6]: 0
- Hepatotoxicity (cirrhosis) [7]: 0
- Hepatotoxicity (cytolytic) [8]: 0
- Hepatotoxicity (acute) [9]: 0%
- Hepatotoxicity (steatosis) [10]: 0
- Hepatotoxicity (moderate) [11]: 0%
- Hepatotoxicity (choleostasis) [12]: 0
- Hepatotoxicity (association with vascular disease) [13]: 0
- Hepatotoxicity (acute) [14]: 0

Structure (SMILES): Clc1ccc(COC(Cn2ccnc2)c2ccc(Cl)cc2Cl)c(Cl)c1 (centres undefined) [MICONAZOLE]
- Hepatotoxicity (granulomatous hepatitis) [1]: 0
- Hepatotoxicity (chronic liver disease) [2]: 0
- Hepatotoxicity (malignant tumour) [3]: 0
- Hepatotoxicity (moderate) [4]: 2
- Hepatotoxicity (benign tumour) [5]: 0
- Hepatotoxicity (severe hepatitis) [6]: 0
- Hepatotoxicity (cirrhosis) [7]: 0
- Hepatotoxicity (cytolytic) [8]: 0
- Hepatotoxicity (acute) [9]: 0%
- Hepatotoxicity (steatosis) [10]: 0
- Hepatotoxicity (moderate) [11]: 0%
- Hepatotoxicity (choleostasis) [12]: 0
- Hepatotoxicity (association with vascular disease) [13]: 0
- Hepatotoxicity (acute) [14]: 0

Structure (SMILES): CC(C)/N=C/Nc1ccc(-c2c[nH]cn2)cc1 [MIFENTIDINE]
- Hepatotoxicity (granulomatous hepatitis) [1]: 0
- Hepatotoxicity (chronic liver disease) [2]: 0
- Hepatotoxicity (malignant tumour) [3]: 0
- Hepatotoxicity (moderate) [4]: 1
- Hepatotoxicity (benign tumour) [5]: 0
- Hepatotoxicity (severe hepatitis) [6]: 0
- Hepatotoxicity (cirrhosis) [7]: 0
- Hepatotoxicity (cytolytic) [8]: 0
- Hepatotoxicity (acute) [9]: 0%
- Hepatotoxicity (steatosis) [10]: 0
- Hepatotoxicity (moderate) [11]: 3.3%
- Hepatotoxicity (choleostasis) [12]: 0
- Hepatotoxicity (association with vascular disease) [13]: 0
- Hepatotoxicity (acute) [14]: 0

Structure (SMILES): Cc1[nH]c(=O)c(C#N)cc1-c1ccncc1 [MILRINONE]
- Hepatotoxicity (granulomatous hepatitis) [1]: 0
- Hepatotoxicity (chronic liver disease) [2]: 0
- Hepatotoxicity (malignant tumour) [3]: 0
- Hepatotoxicity (moderate) [4]: 2
- Hepatotoxicity (benign tumour) [5]: 0
- Hepatotoxicity (severe hepatitis) [6]: 0
- Hepatotoxicity (cirrhosis) [7]: 0
- Hepatotoxicity (cytolytic) [8]: 0
- Hepatotoxicity (acute) [9]: 0%
- Hepatotoxicity (steatosis) [10]: 0
- Hepatotoxicity (moderate) [11]: 2%
- Hepatotoxicity (choleostasis) [12]: 0
- Hepatotoxicity (association with vascular disease) [13]: 0
- Hepatotoxicity (acute) [14]: 0

Structure (SMILES): CCCCC(C)(O)C/C=C/[C@H]1[C@H](O)CC(=O)[C@@H]1CCCCCCC(=O)OC (some centres undefined) [MISOPROSTOL]
- Hepatotoxicity (granulomatous hepatitis) [1]: 0
- Hepatotoxicity (chronic liver disease) [2]: 0
- Hepatotoxicity (malignant tumour) [3]: 0
- Hepatotoxicity (moderate) [4]: 6
- Hepatotoxicity (benign tumour) [5]: 0
- Hepatotoxicity (severe hepatitis) [6]: 0
- Hepatotoxicity (cirrhosis) [7]: 0
- Hepatotoxicity (cytolytic) [8]: 0
- Hepatotoxicity (acute) [9]: 0%
- Hepatotoxicity (steatosis) [10]: 0
- Hepatotoxicity (moderate) [11]: 16.7%
- Hepatotoxicity (choleostasis) [12]: 0
- Hepatotoxicity (association with vascular disease) [13]: 0
- Hepatotoxicity (acute) [14]: 0

Structure (SMILES): CC(/C=N/NC(=N)N)=N\NC(=N)N [MITOGUAZONE]
- Hepatotoxicity (granulomatous hepatitis) [1]: 0
- Hepatotoxicity (chronic liver disease) [2]: 0
- Hepatotoxicity (malignant tumour) [3]: 0
- Hepatotoxicity (moderate) [4]: 1
- Hepatotoxicity (benign tumour) [5]: 0
- Hepatotoxicity (severe hepatitis) [6]: 0
- Hepatotoxicity (cirrhosis) [7]: 0
- Hepatotoxicity (cytolytic) [8]: 0
- Hepatotoxicity (acute) [9]: 0%
- Hepatotoxicity (steatosis) [10]: 0
- Hepatotoxicity (moderate) [11]: 18.2%
- Hepatotoxicity (choleostasis) [12]: 0
- Hepatotoxicity (association with vascular disease) [13]: 0
- Hepatotoxicity (acute) [14]: 0

Structure (SMILES): CCNNC(=O)[C@@H]1[C@H](c2cc(OC)c(OC)c(OC)c2)c2cc3c(cc2[C@H](O)[C@H]1CO)OCO3 [MITOPODOZIDE]
- Hepatotoxicity (granulomatous hepatitis) [1]: 0
- Hepatotoxicity (chronic liver disease) [2]: 0
- Hepatotoxicity (malignant tumour) [3]: 0
- Hepatotoxicity (moderate) [4]: 1
- Hepatotoxicity (benign tumour) [5]: 0
- Hepatotoxicity (severe hepatitis) [6]: 0
- Hepatotoxicity (cirrhosis) [7]: 0
- Hepatotoxicity (cytolytic) [8]: 0
- Hepatotoxicity (acute) [9]: 0%
- Hepatotoxicity (steatosis) [10]: 0
- Hepatotoxicity (moderate) [11]: 1.3%
- Hepatotoxicity (choleostasis) [12]: 0
- Hepatotoxicity (association with vascular disease) [13]: 0
- Hepatotoxicity (acute) [14]: 0

Structure (SMILES): COc1ccc(-c2noc(CC(=O)O)c2-c2ccc(OC)cc2)cc1 [MOFEZOLAC]
- Hepatotoxicity (granulomatous hepatitis) [1]: 0
- Hepatotoxicity (chronic liver disease) [2]: 0
- Hepatotoxicity (malignant tumour) [3]: 0
- Hepatotoxicity (moderate) [4]: 1
- Hepatotoxicity (benign tumour) [5]: 0
- Hepatotoxicity (severe hepatitis) [6]: 0
- Hepatotoxicity (cirrhosis) [7]: 0
- Hepatotoxicity (cytolytic) [8]: 0
- Hepatotoxicity (acute) [9]: 0%
- Hepatotoxicity (steatosis) [10]: 0
- Hepatotoxicity (moderate) [11]: 0%
- Hepatotoxicity (choleostasis) [12]: 0
- Hepatotoxicity (association with vascular disease) [13]: 0
- Hepatotoxicity (acute) [14]: 0

Structure (SMILES): O=C(CCCN1CCN(c2ccc(F)cc2)CC1)NC1c2ccccc2CSc2ccccc21 (centres undefined) [MONATEPIL]
- Hepatotoxicity (granulomatous hepatitis) [1]: 0
- Hepatotoxicity (chronic liver disease) [2]: 0
- Hepatotoxicity (malignant tumour) [3]: 0
- Hepatotoxicity (moderate) [4]: 1
- Hepatotoxicity (benign tumour) [5]: 0
- Hepatotoxicity (severe hepatitis) [6]: 0
- Hepatotoxicity (cirrhosis) [7]: 0
- Hepatotoxicity (cytolytic) [8]: 0
- Hepatotoxicity (acute) [9]: 0%
- Hepatotoxicity (steatosis) [10]: 0
- Hepatotoxicity (moderate) [11]: 4.5%
- Hepatotoxicity (choleostasis) [12]: 0
- Hepatotoxicity (association with vascular disease) [13]: 0
- Hepatotoxicity (acute) [14]: 0
